{"source": "patent US11666532B2", "about": "“Tranexamic acid oral solution” (Hyloris Developments SA, priority 2018, dated 2023)", "key": {"[1]": {"test_system": "bleeding during or after dental procedures", "conditions": "local tranexamic acid as a supplement to systemic therapy; cited from earlier work"}, "[2]": {"conditions": "cited from earlier work"}, "[3]": {"test_system": "whole blood or citrated blood from normal subjects", "conditions": "cited from earlier work"}, "plasma protein": {"test_system": "plasma protein", "conditions": "cited from earlier work"}, "[4]": {"conditions": "cited from earlier work", "remark": "listed apart in the source"}, "serum albumin": {"biological_target": "serum albumin (Homo sapiens, UniProt P02768)", "sequence (P02768 25-609)": "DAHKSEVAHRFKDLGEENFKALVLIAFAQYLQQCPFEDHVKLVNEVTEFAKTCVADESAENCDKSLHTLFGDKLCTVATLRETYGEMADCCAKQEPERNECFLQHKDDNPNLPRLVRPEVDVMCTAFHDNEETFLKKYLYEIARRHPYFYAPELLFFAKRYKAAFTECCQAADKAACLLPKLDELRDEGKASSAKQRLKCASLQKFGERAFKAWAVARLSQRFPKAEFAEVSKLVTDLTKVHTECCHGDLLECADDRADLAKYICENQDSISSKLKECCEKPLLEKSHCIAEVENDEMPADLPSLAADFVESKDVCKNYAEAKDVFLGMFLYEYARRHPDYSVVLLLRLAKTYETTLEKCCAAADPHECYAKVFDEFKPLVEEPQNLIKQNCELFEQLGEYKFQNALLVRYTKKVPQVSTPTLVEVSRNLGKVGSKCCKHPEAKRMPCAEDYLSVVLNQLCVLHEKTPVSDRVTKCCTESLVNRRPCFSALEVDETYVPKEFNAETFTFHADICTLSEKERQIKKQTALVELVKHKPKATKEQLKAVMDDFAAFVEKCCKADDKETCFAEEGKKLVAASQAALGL", "conditions": "cited from earlier work"}, "plasminogen": {"biological_target": "plasminogen (Homo sapiens, UniProt P00747)", "sequence (P00747 20-810 limits assumed)": "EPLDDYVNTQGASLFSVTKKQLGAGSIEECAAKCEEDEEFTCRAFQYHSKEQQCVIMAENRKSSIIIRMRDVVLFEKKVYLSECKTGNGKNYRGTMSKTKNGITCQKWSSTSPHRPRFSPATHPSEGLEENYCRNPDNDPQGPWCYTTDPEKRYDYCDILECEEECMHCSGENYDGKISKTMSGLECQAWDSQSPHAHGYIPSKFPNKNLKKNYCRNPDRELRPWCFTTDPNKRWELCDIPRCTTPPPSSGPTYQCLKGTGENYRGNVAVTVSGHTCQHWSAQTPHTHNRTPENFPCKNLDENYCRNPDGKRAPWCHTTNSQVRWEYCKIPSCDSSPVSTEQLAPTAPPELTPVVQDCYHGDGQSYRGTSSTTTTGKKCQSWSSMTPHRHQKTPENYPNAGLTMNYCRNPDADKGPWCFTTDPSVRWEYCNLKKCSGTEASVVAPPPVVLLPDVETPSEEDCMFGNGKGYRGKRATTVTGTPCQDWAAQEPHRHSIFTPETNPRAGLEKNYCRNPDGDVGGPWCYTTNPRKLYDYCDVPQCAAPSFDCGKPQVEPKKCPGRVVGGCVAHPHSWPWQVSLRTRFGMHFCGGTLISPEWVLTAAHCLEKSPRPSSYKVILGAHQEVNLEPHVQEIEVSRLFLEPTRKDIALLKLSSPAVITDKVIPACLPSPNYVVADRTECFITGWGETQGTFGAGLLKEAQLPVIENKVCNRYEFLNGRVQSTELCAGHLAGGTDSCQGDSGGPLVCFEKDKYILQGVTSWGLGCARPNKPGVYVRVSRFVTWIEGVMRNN", "conditions": "cited from earlier work"}, "[5]": {"test": "Binary mixtures study: discoloration at 60° C., visual inspection", "assay_type": "physicochemical", "conditions": "binary mixture with TXA in phosphoric acid solution pH 5.5, glass vials, 60° C. oven, 2 weeks", "protocol": "To determine which components of the formulation were responsible for the discoloration, binary mixtures of TXA and each component were dissolved in phosphoric acid solution at pH 5.5 in amounts representative to their concentration in Formulation A of Table 1A.\nSamples of each mixture in Table 1B were placed in glass vials and stored in 60° C. oven for 2 weeks and visually inspected periodically for discoloration. The samples from Table 1B containing TXA and Sorbitol (sample 5), or TXA and Glycerin (sample 3), or TXA and Poloxamer 407 (sample 6), or TXA and spearmint flavor F-4785, turned yellow. Thus sorbitol, glycerin, poloxamer 407 and spearmint flavor were considered to be the ingredients responsible for the discoloration of formula A.\nBinary mixtures of TXA and alternative surfactants were prepared and samples were stored in a 60° C. oven to test for discoloration as described in Table 2.\nBinary mixtures of Na CMC and TXA were prepared and stored at 60° C. for 2 weeks to test for discoloration as in Table 3."}, "[6]": {"conditions": "after oral and intravenous administration"}, "[7]": {"conditions": "four doses of 10-20 mg per kg body weight 36-48 hours before surgery"}, "[8]": {"conditions": "three hours after a single oral dose of 25 mg per kg body weight"}}, "note": "Like-named read-outs stand apart in the source and are kept apart here.", "data": [{"molecule": "NC[C@H]1CC[C@H](C(=O)O)CC1", "note": "[tranexamic acid, trans-4-(aminomethyl) cyclohexanecarboxylic acid]", "values": [{"measurement": "incidence of bleeding during or after dental procedures (postoperative bleeding)", "setting": "[1]", "value": "significantly reduces"}, {"measurement": "concentrations in saliva, initially", "setting": "[2]; after mouth rinse", "value": "above 200 μg per mL"}, {"measurement": "plasma concentrations", "setting": "[2]; after mouth rinse", "value": "below 2 μg per mL"}, {"measurement": "time saliva concentrations remained above therapeutic levels", "setting": "[2]; after mouth rinse", "value": "more than 2 hours"}, {"measurement": "saliva levels", "setting": "[2]; after oral administration, any time point", "value": "undetectable"}, {"measurement": "maximum mean plasma concentration", "setting": "[2]; after oral administration", "value": "~7", "unit": "μg per mL"}, {"measurement": "time to maximum mean plasma concentration", "setting": "[2]; after oral administration", "value": 120, "unit": "min"}, {"measurement": "thrombin time", "setting": "[3]; concentrations of 1 mg to 10 mg per mL blood", "value": "prolongs"}, {"measurement": "influence on the platelet count, the coagulation time, or various coagulation factors", "setting": "[3]; concentrations up to 10 mg per mL blood, whole blood or citrated blood from normal subjects", "value": "no influence"}, {"measurement": "plasma protein binding", "setting": "plasma protein; at therapeutic plasma levels of 5-10 mg/L", "value": "negligible"}, {"measurement": "plasma protein binding", "setting": "plasma protein; at therapeutic plasma levels", "value": "about 3%"}, {"measurement": "excretion", "setting": "[4]; 24 hours after oral administration of 10-15 mg per kg body weight", "value": 39, "unit": "%"}, {"measurement": "concentration in fetal serum", "setting": "[4]; after intravenous injection of 10 mg per kg body weight", "value": "about 30 μg per mL"}, {"measurement": "acetylated product excreted", "setting": "[4]; after oral administration", "value": "~0.5", "unit": "%"}, {"measurement": "deaminated dicarboxylic acid excreted", "setting": "[4]; after oral administration", "value": "~2", "unit": "%"}, {"measurement": "parent compound excreted", "setting": "[4]; after oral administration", "value": "approximately 50%"}, {"measurement": "fibrinolytic activity of the semen", "setting": "[4]; [6]", "value": "inhibits"}, {"measurement": "motility of the spermatozoa", "setting": "[4]; [6]", "value": "without affecting"}, {"measurement": "passage into the semen", "setting": "[4]; [6]", "value": "passes into the semen"}, {"measurement": "concentration in breast milk relative to corresponding serum levels", "setting": "[4]; during lactation", "value": "1/100"}, {"measurement": "plasma concentration", "setting": "[4]; five hours after intravenous 10 mg per kg body weight", "value": 5, "unit": "μg per mL"}, {"measurement": "time an antifibrinolytically active concentration (10 μg/mL) remained in the serum", "setting": "[4]; [7]", "value": "7 to 8", "unit": "h"}, {"measurement": "time an antifibrinolytically active concentration (10 μg/mL) remained in the tissues investigated", "setting": "[4]; [7]", "value": "up to 17 hours"}, {"measurement": "biological half-life in the joint fluid", "setting": "[4]; in vivo", "value": "about 3 hours"}, {"measurement": "concentration in the joint fluid compared with the serum", "setting": "[4]; in vivo", "value": "same concentration"}, {"measurement": "dose excreted in the urine as unchanged drug", "setting": "[4]; in vivo", "value": "more than 95%"}, {"measurement": "fraction of the drug metabolized", "setting": "[4]; in vivo", "value": "less than 5%"}, {"measurement": "placental transfer", "setting": "[4]; in vivo", "value": "crosses the placenta"}, {"measurement": "half-life for the terminal elimination phase", "setting": "[4]; intravenous dose of 1 g", "value": "about 2 hours"}, {"measurement": "plasma concentration", "setting": "[4]; one hour after intravenous 10 mg per kg body weight", "value": 18.3, "unit": "μg per mL"}, {"measurement": "excretion", "setting": "[4]; one hour after intravenous administration of 10 mg per kg body weight", "value": "about 30%"}, {"measurement": "excretion", "setting": "[4]; one hour after oral administration of 10-15 mg per kg body weight", "value": 1, "unit": "%"}, {"measurement": "effect of food intake on bioavailability", "setting": "[4]; oral", "value": "not affected"}, {"measurement": "ability to cross the blood-brain barrier", "setting": "[4]; patients with ruptured intracranial aneurysms", "value": "has been demonstrated"}, {"measurement": "aqueous humor level", "setting": "[4]; [8]", "value": 1.6, "unit": "mg per L"}, {"measurement": "peak serum level", "setting": "[4]; [8]", "value": 15.4, "unit": "mg per L"}, {"measurement": "plasma concentration", "setting": "[4]; three hours after intravenous 10 mg per kg body weight", "value": 9.6, "unit": "μg per mL"}, {"measurement": "excretion", "setting": "[4]; three hours after intravenous administration of 10 mg per kg body weight", "value": "~55", "unit": "%"}, {"measurement": "excretion", "setting": "[4]; three hours after oral administration of 10-15 mg per kg body weight", "value": 7, "unit": "%"}, {"measurement": "binding to serum albumin", "setting": "serum albumin", "value": "does not bind"}, {"measurement": "binding to strong and weak sites in the plasminogen molecule relative to epsilon aminocaproic acid (EACA)", "setting": "plasminogen", "value": "considerably more strongly"}]}, {"molecule": "alpha-D-Glucopyranoside, beta-D-fructofuranosyl, monooctadecanoate [Sucrose Stearate]", "values": [{"measurement": "Discoloration", "setting": "[5]", "value": "did not dissolve into solution"}]}, {"molecule": "beta-D-Fructofuranosyl-alpha-D-glucopyranoside, monododecanoate [Sucrose Laurate]", "values": [{"measurement": "Discoloration", "setting": "[5]", "value": "didn't cause discoloration"}]}, {"molecule": "polyoxyethylene (20)sorbitan monooleate [Tween 80]", "values": [{"measurement": "Discoloration", "setting": "[5]", "value": "didn't cause discoloration"}]}, {"molecule": "polyoxyethylene sorbitan monolaurate [Tween 20]", "values": [{"measurement": "Discoloration", "setting": "[5]", "value": "didn't cause discoloration"}]}]}
